The values below come from patent publication EP2258713A1, “Antiviral Triterpene Derivatives” (priority 2009, dated 2010).

The subject of data set [1] is MDCK cells. Briefly: Cytotoxicity determination: cell viability of uninfected cells, CellTiter-Glo luminescent cell viability assay. The note with it: 48 h; for Viability %: MDCK cells. For orientation: ATP-based viability assays read luminescence as a measure of living cells.
In another data set the test system is H3N2 Influenza A Virus. The format is cell-based.
A further data set deals with PKC and CK-I. The note with it: 100 µM; cited from earlier work.
In the next data set the test system is TNFα. Briefly: Expression of TNFα in cells (general statement, no data shown). The format is cell-based. The note with it: no values. The text has this:
A person skilled in the art would be able to identify TNFα-downregulating compounds of the invention by contacting one or more cells with a compound of the invention and assaying for the presence of one TNFα and comparing the levels of TNFα in the one or more cells with that of controls. Such methods are known in the art and are described in the examples herein below.

Data set [2] has as its system MDCK cells. The note with it: dog, 48 h.
A further data set concerns CK-2. The note with it: 30 µM; cited from earlier work.
Data set [3] concerns murine retinal ganglion cells. The note with it: cited from earlier work.

Read-outs that look alike come from different tables or passages of the source.

On to `CC1(C)[C@@H](NCCS[C@@H]2O[C@H](C(=O)O)[C@@H](O)[C@H](O)[C@H]2O)CC[C@]2(C)[C@H]3C(=O)C=C4[C@@H]5C[C@@](C)(C(=O)O)CC[C@]5(C)CC[C@@]4(C)[C@]3(C)CC[C@@H]12` [Compound 3, (3S,18R,20S)-3-[2-(β-D-glucopyranuronosylthio)-ethyl-amino]-11-oxo-olean-12-en-29-oic acid], for which the Viability % was 103.5% in the data set with MDCK cells [1] (25 µM) and 105.5% in the data set with MDCK cells [1] (250 µM).

Take `CC(=O)N(CCS[C@@H]1O[C@H](C(=O)O)[C@@H](O)[C@H](O)[C@H]1O)[C@H]1CC[C@]2(C)[C@H]3C(=O)C=C4[C@@H]5C[C@@](C)(C(=O)O)CC[C@]5(C)CC[C@@]4(C)[C@]3(C)CC[C@H]2C1(C)C` [Compound 5, (3S,18R,20S)-3-{N-Acetyl-N-[2-(beta-D-glucopyranuronosylthio)-ethyl]-amino}-11-oxo-olean-12-en-29-oic acid]: the figures for the Viability % in the data set with MDCK cells [1] (25 µM) and in the data set on MDCK cells [1] (250 µM) were 106.6% and 93.5%, respectively.

With `CC1(C)[C@@H](O[C@H]2O[C@H](C(=O)O)[C@@H](O)[C@H](O)[C@H]2O[C@@H]2O[C@H](C(=O)O)[C@@H](O)[C@H](O)[C@H]2O)CC[C@]2(C)[C@H]3C(=O)C=C4[C@@H]5C[C@@](C)(C(=O)O)CC[C@]5(C)CC[C@@]4(C)[C@]3(C)CC[C@@H]12` [Glycyrrhizin, glycyrrhizin, reference compound], the “reduction of the CPE (cytopathic effect)” value in the data set with H3N2 Influenza A Virus is given as 57%. Further, in the data set on PKC and CK-I, the “phosphorylation of HMGB1/2 by PKC and CK-I” value was “completely inhibits”. Further, the Viability % turned out to be 100.9% in the data set on MDCK cells [1] (25 µM), 105.3% with MDCK cells [1] (250 µM) and 101.7% with MDCK cells [1] (1500 µM). For the same molecule, the “cell viability of uninfected treated cells versus uninfected untreated cells” value in the data set with MDCK cells [1] (1.5 mM, uninfected MDCK cells) is “not significantly different”.

For `CON(C1OC(CO)C(O)C(O)C1O)C1CCC2(C)C(CCC3(C)C2C(=O)C=C2C4CC(C)(C(=O)O)CCC4(C)CCC23C)C1(C)C` [Compound 1, (3S,18R,20S)-11-Oxo-3-[(beta-D-glucopyranosyl)methoxamino]-olean-12-en-29-oic acid], the “cytopathic effect associated with virus replication in cell culture” value in the data set with H3N2 Influenza A Virus (general statement, no values) is listed as “reduce the cytopathic effect”. For the same molecule, the “expression of TNFα” value with TNFα is reported as “inhibit the expression of TNFα”.

As for `COC(=O)CCC(=O)N(CCS[C@@H]1O[C@H](C(=O)OC)[C@@H](O)[C@H](O)[C@H]1O)[C@H]1CC[C@]2(C)[C@H]3C(=O)C=C4[C@@H]5C[C@@](C)(C(=O)O)CC[C@]5(C)CC[C@@]4(C)[C@]3(C)CC[C@H]2C1(C)C` [Compound 6, (3S,18R,20S)-3-{N-(4-Methoxy-1,4-dioxobutyl)-N-[2-S-(methyl-1-thio-beta-D-glucopyranosyluronate)-ethyl]-amino}-11-oxo-olean-12-en-29-oic acid], the values for the Viability % with MDCK cells [1] (25 µM) and in the data set with MDCK cells [1] (250 µM) were 107.3% and 106.3%, respectively.

For `COC(=O)[C@H]1O[C@@H](SCCN[C@H]2CC[C@]3(C)[C@H]4C(=O)C=C5[C@@H]6C[C@@](C)(C(=O)O)CC[C@]6(C)CC[C@@]5(C)[C@]4(C)CC[C@H]3C2(C)C)[C@H](O)[C@@H](O)[C@@H]1O` [Compound 2, (3S,18R,20S)-3-[2-S-(Methyl-1-thio-beta-D-glucopyranosyluronate)-ethyl-amino]-11-oxo-olean-12-en-29-oic acid], the Viability % is on record as 114.6% in the data set on MDCK cells [1] (25 µM) and 101.2% with MDCK cells [1] (250 µM).

As to `CC1(C)[C@@H](O)CC[C@]2(C)[C@H]3C(=O)C=C4[C@@H]5C[C@@](C)(C(=O)O)CC[C@]5(C)CC[C@@]4(C)[C@]3(C)CC[C@@H]12` [Glycyrrhetinic acid], the Viability % in the data set on MDCK cells [2] (25 µM) was 0.2%; in the data set on MDCK cells [2] (250 µM), 0.0%. Also, in the data set with CK-2, the “phosphorylation of C3α by CK-2” value was “completely inhibited”. In data set [3], the postsynaptic light response is listed as 30 % of control.

Take `COC(=O)[C@H]1O[C@@H](SCCN(C(C)=O)[C@H]2CC[C@]3(C)[C@H]4C(=O)C=C5[C@@H]6C[C@@](C)(C(=O)O)CC[C@]6(C)CC[C@@]5(C)[C@]4(C)CC[C@H]3C2(C)C)[C@H](O)[C@@H](O)[C@@H]1O` [Compound 4, (3S,18R,20S)-3-{N-Acetyl-N-[2-S-(methyl-1-thio-beta-D-glucopyranosyluronate)-ethyl]-amino}-11-oxo-olean-12-en-29-oic acid]: the Viability % with MDCK cells [1] (25 µM) was 104.4%; in the data set on MDCK cells [1] (250 µM) it was 99.4%.
